Source: patent US9605003B2, “Heterocyclic compounds and uses thereof” (Infinity Pharmaceuticals, Inc., priority 2011, dated 2017)

Experiments:
[1] = system: phospho-AKT in RAJI cells; experiment: PI3Kδ selective cellular assay, phospho-AKT in anti-IgM stimulated RAJI cells; type: cell-based; details: Homo sapiens; RAJI cell model
Description: A compound's ability in selectively inhibiting PI3Kδ can be assessed using RAJI cells, i.e., B lymphocyte cells derived from lymphoma patients. Briefly, serum-starved RAJI cells are stimulated with anti-human IgM, thereby causing signaling through the B-cell receptors, as described in, for example, He et al., Leukemia Research (2009) 33: 798-802. B-cell receptor signaling is important for the activation, differentiation, and survival of B cells and certain B-cell derived cancers. Reduction of phospho-AKT is indicative of compounds that may inhibit B-cell proliferation and function in certain diseases. By monitoring the reduction of phospho-AKT in stimulated RAJI cells (using for example, phospho-AKT antibodies), a compound's potential efficacy in selectively inhibiting PI3Kδ can be assessed.
Certain compounds provided herein (e.g., Compounds 5, 38, 103, 105, 106, 107, 108, and 109) were tested in RAJI cell model using procedures as described above.

[2] = system: phospho-AKT in RAW 264.7 cells; experiment: PI3Kγ selective cellular assay, phospho-AKT in C5a stimulated RAW 264.7 cells; type: cell-based; details: Mus musculus, RAW264.7, RAW 264.7 cell model
Description: A compound's ability in selectively inhibiting PI3Kγ can be assessed using RAW264.7 macrophages. Briefly, serum-starved PAW264.7 cells are stimulated with a known GPCR agonist C5a. (See, e.g., Camps et al., Nature Medicine (2005) 11(9): 936-943). Cells can be treated with test compounds prior to, simultaneously with, or subsequent to the stimulation by C5a. RAW 264.7 cells respond to the complement component fragment C5a through activation of the C5a receptor, and the C5a receptor activates macrophages and induces cell migration. Test compounds' ability to inhibit C5a-mediated AKT phosphorylation is indicative of selective inhibition of PI3Kγ. Thus, by monitoring the reduction of phospho-AKT in stimulated RAW 264.7 cells (using for example, phospho-AKT antibodies), a compound's potential efficacy in selectively inhibiting PI3Kγ can be assessed.
Certain compounds provided herein (e.g., Compounds 5, 38, 103, 105, 106, 107, 108, and 109) were tested in RAW 264.7 cell model using procedures as described above.

PI3Kα = biological target: T1, PI3Kα (Homo sapiens, UniProt P42336); experiment: PI3 Kinase HTRF assay, PI3Kα; type: biochemical; details: Between 1 μM and 10 μM; read-out: PI3K α IC50
T1 construct: purchased Millipore Corporation 14-602-K
T1 sequence (P42336 whole entry): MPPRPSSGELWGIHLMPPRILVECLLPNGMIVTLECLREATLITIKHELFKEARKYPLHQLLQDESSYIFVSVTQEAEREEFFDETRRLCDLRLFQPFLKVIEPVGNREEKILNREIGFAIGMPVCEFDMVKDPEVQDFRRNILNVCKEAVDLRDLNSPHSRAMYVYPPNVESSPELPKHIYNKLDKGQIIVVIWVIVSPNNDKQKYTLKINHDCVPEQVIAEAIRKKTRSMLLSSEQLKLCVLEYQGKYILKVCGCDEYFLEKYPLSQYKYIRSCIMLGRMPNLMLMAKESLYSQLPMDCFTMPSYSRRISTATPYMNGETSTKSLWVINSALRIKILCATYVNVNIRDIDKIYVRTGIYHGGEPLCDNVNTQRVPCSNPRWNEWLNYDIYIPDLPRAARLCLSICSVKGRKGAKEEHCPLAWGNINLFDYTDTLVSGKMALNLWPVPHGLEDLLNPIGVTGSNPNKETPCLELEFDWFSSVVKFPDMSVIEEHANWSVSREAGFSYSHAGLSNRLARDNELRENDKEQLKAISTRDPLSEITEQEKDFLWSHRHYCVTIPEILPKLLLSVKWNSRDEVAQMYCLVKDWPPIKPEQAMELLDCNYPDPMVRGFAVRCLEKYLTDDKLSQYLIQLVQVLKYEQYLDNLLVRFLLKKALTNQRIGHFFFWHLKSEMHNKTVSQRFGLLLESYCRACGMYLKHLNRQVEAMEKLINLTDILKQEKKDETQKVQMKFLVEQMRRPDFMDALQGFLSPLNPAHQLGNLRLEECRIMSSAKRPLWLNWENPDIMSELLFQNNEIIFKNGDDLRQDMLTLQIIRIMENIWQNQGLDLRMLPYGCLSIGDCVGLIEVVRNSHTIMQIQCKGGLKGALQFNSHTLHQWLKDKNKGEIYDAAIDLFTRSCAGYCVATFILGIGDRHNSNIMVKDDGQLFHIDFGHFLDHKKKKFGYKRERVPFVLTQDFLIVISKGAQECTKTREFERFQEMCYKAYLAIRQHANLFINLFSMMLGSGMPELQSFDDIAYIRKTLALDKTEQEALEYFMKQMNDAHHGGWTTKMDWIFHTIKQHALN
T1 sequence (P27986 whole entry partner): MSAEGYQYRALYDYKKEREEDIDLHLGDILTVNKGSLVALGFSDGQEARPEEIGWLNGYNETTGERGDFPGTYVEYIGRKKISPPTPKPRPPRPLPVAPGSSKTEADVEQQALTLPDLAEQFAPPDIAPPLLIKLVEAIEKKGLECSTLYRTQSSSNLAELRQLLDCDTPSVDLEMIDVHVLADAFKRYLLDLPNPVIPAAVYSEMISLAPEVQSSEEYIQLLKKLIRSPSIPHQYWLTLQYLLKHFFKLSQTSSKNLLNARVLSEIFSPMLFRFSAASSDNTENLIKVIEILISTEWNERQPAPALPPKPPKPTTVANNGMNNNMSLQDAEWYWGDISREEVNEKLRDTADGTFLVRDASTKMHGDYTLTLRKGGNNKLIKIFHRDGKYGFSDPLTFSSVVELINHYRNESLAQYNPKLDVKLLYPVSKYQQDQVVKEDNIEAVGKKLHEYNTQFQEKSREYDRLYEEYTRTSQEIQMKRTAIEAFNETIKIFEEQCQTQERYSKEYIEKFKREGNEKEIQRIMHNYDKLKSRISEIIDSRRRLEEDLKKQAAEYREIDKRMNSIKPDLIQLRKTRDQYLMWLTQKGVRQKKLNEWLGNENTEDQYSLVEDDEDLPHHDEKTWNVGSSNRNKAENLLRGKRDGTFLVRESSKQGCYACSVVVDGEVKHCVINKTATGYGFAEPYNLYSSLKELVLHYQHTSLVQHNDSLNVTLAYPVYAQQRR
Description: (§1) A PI3-Kinase HTRF® assay kit (cat No. 33-016) purchased from Millipore Corporation was used to screen compounds provided herein. This assay used specific, high affinity binding of the GRP1 pleckstrin homology (PH) domain to PIP3, the product of a Class 1A or 1B PI3 Kinase acting on its physiological substrate PIP2. During the detection phase of the assay, a complex was generated between the GST-tagged PH domain and biotinylated short chain PIP3. The biotinylated PIP3 and the GST-tagged PH domain recruited fluorophores (Streptavidin-Allophycocyanin and Europium-labeled anti-GST respectively) to form the fluorescence resonance energy transfer (FRET) architecture, generating a stable time-resolved FRET signal. The FRET complex was disrupted in a competitive manner by non-biotinylated PIP3, a product formed in the PI3 Kinase assay.
(§2) PI3 Kinase α, β, γ and δ activity was assayed using the PI3 Kinase HTRF® assay kit (catalogue No. 33-016) purchased from Millipore Corporation. Purified recombinant PI3Kα (catalogue No. 14-602-K), PI3Kβ (catalogue No. 14-603-K), PI3Kγ (catalogue No. 14-558-K) and PI3Kδ (catalogue No. 14-604-K) were obtained from Millipore Corporation. Purified recombinant PI3K enzyme was used to catalyze the phosphorylation of phosphatidylinositol 4,5-bisphosphate (PIP2 at 10 μM) to phosphatidylinositol 3,4,5-trisphosphate (PIP3) in the presence of 10 μM ATP. The assay was carried out in 384-well format and detected using a Perkin Elmer EnVision Xcite Multilabel Reader. Emission ratios were converted into percent inhibitions and imported into GraphPad Prism software. The concentration necessary to achieve inhibition of enzyme activity by 50% (IC50) was calculated using concentrations ranging from 20 μM to 0.1 nM (12-point curve). IC50 values were determined using a nonlinear regression model available in GraphPad Prism 5.

PI3Kβ = biological target: T2, PI3Kβ (Homo sapiens, UniProt P42338); experiment: PI3 Kinase HTRF assay, PI3Kβ; type: biochemical; details: Between 1 μM and 10 μM; read-out: PI3K β IC50
T2 construct: purchased Millipore Corporation 14-603-K
T2 sequence (P42338 whole entry): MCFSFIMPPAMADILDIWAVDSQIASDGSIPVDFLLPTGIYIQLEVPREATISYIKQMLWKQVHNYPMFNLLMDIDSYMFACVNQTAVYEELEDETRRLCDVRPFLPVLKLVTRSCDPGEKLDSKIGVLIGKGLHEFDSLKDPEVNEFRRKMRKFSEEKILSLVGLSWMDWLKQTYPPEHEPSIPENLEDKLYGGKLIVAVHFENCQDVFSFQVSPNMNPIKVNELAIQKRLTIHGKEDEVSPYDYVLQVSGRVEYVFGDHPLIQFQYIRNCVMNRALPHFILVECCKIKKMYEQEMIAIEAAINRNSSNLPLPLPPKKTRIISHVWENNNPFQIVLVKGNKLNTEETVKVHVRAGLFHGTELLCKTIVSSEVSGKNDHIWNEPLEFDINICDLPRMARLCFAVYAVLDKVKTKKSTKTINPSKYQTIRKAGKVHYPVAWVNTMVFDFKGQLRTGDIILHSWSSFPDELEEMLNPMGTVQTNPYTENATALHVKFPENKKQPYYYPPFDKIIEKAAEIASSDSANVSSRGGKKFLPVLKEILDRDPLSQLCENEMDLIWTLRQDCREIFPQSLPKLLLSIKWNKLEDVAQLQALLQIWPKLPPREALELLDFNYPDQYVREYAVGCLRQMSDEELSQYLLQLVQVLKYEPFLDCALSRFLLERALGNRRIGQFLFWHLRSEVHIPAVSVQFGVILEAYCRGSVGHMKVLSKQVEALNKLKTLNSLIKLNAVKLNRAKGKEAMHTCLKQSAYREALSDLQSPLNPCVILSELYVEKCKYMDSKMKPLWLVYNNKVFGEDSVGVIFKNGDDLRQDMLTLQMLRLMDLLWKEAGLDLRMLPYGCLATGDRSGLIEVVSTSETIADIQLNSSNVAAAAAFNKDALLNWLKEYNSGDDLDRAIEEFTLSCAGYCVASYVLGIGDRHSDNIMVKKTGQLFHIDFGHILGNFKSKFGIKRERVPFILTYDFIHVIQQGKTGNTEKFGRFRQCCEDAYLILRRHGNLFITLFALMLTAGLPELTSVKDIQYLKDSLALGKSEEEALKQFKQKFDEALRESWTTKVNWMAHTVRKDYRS
T2 sequence (P27986 2-724 partner limits assumed): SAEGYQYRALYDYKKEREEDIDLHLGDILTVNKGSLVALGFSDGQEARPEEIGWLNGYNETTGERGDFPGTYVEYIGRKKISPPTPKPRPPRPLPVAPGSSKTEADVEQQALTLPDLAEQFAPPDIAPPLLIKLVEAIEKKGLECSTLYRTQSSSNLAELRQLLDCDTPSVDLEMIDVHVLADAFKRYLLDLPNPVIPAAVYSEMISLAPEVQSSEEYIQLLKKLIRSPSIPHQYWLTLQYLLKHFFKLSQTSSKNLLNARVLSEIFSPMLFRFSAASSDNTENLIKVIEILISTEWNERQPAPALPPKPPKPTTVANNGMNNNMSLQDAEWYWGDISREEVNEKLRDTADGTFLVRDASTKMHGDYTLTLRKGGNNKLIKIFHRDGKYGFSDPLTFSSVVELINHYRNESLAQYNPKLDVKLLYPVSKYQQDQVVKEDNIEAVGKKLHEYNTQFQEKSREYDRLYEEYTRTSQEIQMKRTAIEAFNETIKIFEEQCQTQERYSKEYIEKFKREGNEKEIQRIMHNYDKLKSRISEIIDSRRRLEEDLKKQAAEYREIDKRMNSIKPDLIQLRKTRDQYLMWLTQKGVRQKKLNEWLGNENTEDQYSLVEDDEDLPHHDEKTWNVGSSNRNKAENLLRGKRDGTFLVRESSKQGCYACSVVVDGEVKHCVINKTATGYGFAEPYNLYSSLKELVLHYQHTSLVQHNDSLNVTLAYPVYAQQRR
Description: as §1, §2

Balb/c splenic B cells = experiment: B cell activation and proliferation assay (Alamar Blue); type: cell-based; details: Mus musculus
Description: The ability of one or more subject compounds to inhibit B cell activitation and proliferation is determined according to standard procedures known in the art. For example, an in vitro cellular proliferation assay is established that measures the metabolic activity of live cells. The assay is performed in a 96 well microtiter plate using Alamar Blue reduction. Balb/c splenic B cells are purified over a Ficoll-Paque™ PLUS gradient followed by magnetic cell separation using a MACS B cell Isolation Kit (Miletenyi). Cells are plated in 90 μl at 50,000 cells/well in B Cell Media (RPMI+10% FBS+Penn/Strep+50 μM bME+5 mM HEPES). A compound provided herein is diluted in B Cell Media and added in a 10 μl volume. Plates are incubated for 30 min at 37° C. and 5% CO2 (0.2% DMSO final concentration). A 50 μl B cell stimulation cocktail is then added containing either 10 μg/ml LPS or 5 μg/ml F(ab′)2 Donkey anti-mouse IgM plus 2 ng/ml recombinant mouse IL4 in B Cell Media. Plates are incubated for 72 hours at 37° C. and 5% CO2. A volume of 15 μL of Alamar Blue reagent is added to each well and plates are incubated for 5 hours at 37° C. and 5% CO2. Alamar Blue fluoresce is read at 560Ex/590Em, and IC50 or EC50 values are calculated using GraphPad Prism 5.

PI3Kγ = biological target: T3, PI3Kγ (Homo sapiens, UniProt P48736); experiment: PI3 Kinase HTRF assay, PI3Kγ; type: biochemical; details: Between 1 μM and 10 μM; read-out: PI3K γ IC50
T3 construct: purchased Millipore Corporation 14-558-K
T3 sequence (P48736 whole entry): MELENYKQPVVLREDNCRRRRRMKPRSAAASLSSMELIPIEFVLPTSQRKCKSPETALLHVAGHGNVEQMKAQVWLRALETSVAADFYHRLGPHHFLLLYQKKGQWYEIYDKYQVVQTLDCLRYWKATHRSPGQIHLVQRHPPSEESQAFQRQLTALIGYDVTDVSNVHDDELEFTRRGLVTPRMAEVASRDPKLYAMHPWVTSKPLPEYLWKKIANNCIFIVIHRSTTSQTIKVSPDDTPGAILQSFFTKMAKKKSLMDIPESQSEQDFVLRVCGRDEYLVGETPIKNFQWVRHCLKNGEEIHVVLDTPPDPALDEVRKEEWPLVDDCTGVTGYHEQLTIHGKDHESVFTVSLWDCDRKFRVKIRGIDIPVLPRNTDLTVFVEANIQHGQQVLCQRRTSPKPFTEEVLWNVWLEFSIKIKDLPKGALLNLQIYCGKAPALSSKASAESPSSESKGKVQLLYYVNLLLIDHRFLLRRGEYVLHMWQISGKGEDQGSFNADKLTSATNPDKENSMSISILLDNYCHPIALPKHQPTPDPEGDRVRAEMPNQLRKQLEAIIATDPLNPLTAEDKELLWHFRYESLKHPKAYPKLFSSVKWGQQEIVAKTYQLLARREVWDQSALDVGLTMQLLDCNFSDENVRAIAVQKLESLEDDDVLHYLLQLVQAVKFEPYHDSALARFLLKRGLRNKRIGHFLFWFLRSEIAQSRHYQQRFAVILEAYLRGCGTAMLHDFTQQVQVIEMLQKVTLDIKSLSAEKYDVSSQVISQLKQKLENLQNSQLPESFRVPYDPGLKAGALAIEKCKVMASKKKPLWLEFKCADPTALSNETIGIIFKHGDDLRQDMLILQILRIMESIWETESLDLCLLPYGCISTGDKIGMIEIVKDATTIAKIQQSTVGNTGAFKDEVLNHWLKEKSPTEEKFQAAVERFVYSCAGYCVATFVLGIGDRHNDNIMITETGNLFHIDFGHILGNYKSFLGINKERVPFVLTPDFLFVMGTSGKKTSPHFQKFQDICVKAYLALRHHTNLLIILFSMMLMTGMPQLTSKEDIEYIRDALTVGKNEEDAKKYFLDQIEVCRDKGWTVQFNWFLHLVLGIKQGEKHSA
Description: as §1, §2

[3] = system: phospho-AKT in SKOV-3 cells; experiment: PI3Kα selective cellular assay, phospho-AKT in SKOV-3 cells; type: cell-based; details: Homo sapiens, SK-OV-3; SKOV-3 cell model; range between 100 nM and 1 μM (bounds carry own units)
Description: (§3) A compound's ability in selectively inhibiting PI3Kα can be assessed using SKOV-3 cells, i.e., human ovarian carcinoma cell line. Briefly, SKOV-3 cells, in which mutant PI3Kα is constitutively active, can be treated with test compounds. Test compounds' ability to inhibit AKT phosphorylation in SKOV-3 cells, therefore, is indicative of selective inhibition of PI3Kα. Thus, by monitoring the reduction of phospho-AKT in SKOV-3 cells (using for example, phospho-AKT antibodies), a compound's potential efficacy in selectively inhibiting PI3Kα can be assessed.
Certain compounds provided herein (e.g., Compounds 5, 38, 103, and 106) were tested in SKOV-3 cell model using procedures as described above.

[4] = system: phospho-AKT in 786-O cells; experiment: PI3Kβ selective cellular assay, phospho-AKT in 786-O cells; type: cell-based; details: Homo sapiens, 786-0; 786-O cell model
Description: as §3, with “PI3Kβ” for “PI3Kα”, “786-O” for “SKOV-3”, “kidney” for “ovarian”, “PI3Kβ” for “mutant PI3Kα”, “PI3Kβ.” for “PI3Kα.”
Certain compounds provided herein (e.g., Compounds 5, 38, 103, and 106) were tested in 786-O cell model using procedures as described above.

[5] = range between 100 nM and 1 μM (bounds carry own units)

Compound	IC50 (PI3Kα) [µM]	IC50 (PI3Kβ) [µM]	EC50 (Balb/c splenic B cells; Less than 100 nanoMolar) [µM]	also measured
C[C@H](Nc1ncnc2scnc12)c1cc2cccc(Cl)c2c(=O)n1-c1ccon1 [Compound 105]	–	–	–	IC50 [1]: < 0.1 µM; IC50 [2, 5]: 0.1 to 1 µM
CCCCc1cccc2cc([C@H](C)Nc3ncnc4scnc34)n(-c3ccccc3)c(=O)c12 [Compound 96]	1 to 10	1 to 10	< 0.1	–
C[C@H](Nc1ncnc2scnc12)c1cc2cccc(-c3cnn(C)c3)c2c(=O)n1C [Compound 82]	1 to 10	1 to 10	–	IC50 (PI3Kγ): 1 to 10 µM; EC50 (Balb/c splenic B cells; Between 100 nM and 1 μM): 0.1 to 1 µM
COc1ncc(-c2cccc3cc([C@H](C)Nc4ncnc5scnc45)n(-c4ccccc4)c(=O)c23)cc1C [Compound 56]	1 to 10	1 to 10	< 0.1	–
C[C@H](Nc1ncnc2scnc12)c1cc2cccc(/C=C/c3ccccc3)c2c(=O)n1-c1ccccc1 [Compound 49]	1 to 10	1 to 10	–	EC50 (Balb/c splenic B cells; Between 100 nM and 1 μM): 0.1 to 1 µM
Cc1ncc(-c2cccc3cc([C@H](C)Nc4ncnc5scnc45)n(C4CC4)c(=O)c23)cn1 [Compound 62]	1 to 10	1 to 10	< 0.1	–
C[C@H](Nc1ncnc2scnc12)c1cc2cccc(-c3cnn(C)c3)c2c(=O)n1-c1cccc(F)c1 [Compound 10]	1 to 10	1 to 10	< 0.1	–
COc1ccc(-c2cccc3cc([C@H](C)Nc4ncnc5scnc45)n(-c4ccccc4)c(=O)c23)cc1 [Compound 44]	1 to 10	1 to 10	< 0.1	–
Cc1ncc(-c2cccc3cc([C@H](C)Nc4ncnc5scnc45)n(-c4ccon4)c(=O)c23)cn1 [Compound 107]	–	–	–	IC50 [1]: < 0.1 µM; IC50 [2, 5]: 0.1 to 1 µM
Cc1sc2ncnc(N[C@@H](C)c3cc4cccc(Cl)c4c(=O)n3-c3ccccc3)c2c1C [Compound 97]	–	–	–	IC50 (PI3Kγ): 1 to 10 µM; EC50 (Balb/c splenic B cells; Between 1 μM and 10 μM): 1 to 10 µM
C[C@H](Nc1ncnc2scnc12)c1cc2cccc(C(=O)N3CCOCC3)c2c(=O)n1-c1ccccc1 [Compound 86]	–	–	–	IC50 (PI3Kγ): 1 to 10 µM
C[C@H](Nc1ncnc2scnc12)c1cc2cccc(-c3cnn(C)c3)c2c(=O)n1-c1ccccc1 [Compound 5]	–	1 to 10	< 0.1	IC50 [1]: < 0.1 µM; IC50 [2]: < 0.1 µM; IC50 [3]: 0.1 to 1 µM; IC50 [4]: 1 to 10 µM
COc1ncc(-c2cccc3cc([C@H](C)Nc4ncnc5scnc45)n(-c4ccccc4)c(=O)c23)cc1C(F)(F)F [Compound 58]	1 to 10	1 to 10	< 0.1	–
Cc1ccc(-c2cccc3cc([C@H](C)Nc4ncnc5scnc45)n(-c4ccccc4)c(=O)c23)cn1 [Compound 6]	1 to 10	1 to 10	< 0.1	–
CC(C)n1c([C@H](C)Nc2ncnc3scnc23)cc2cccc(-c3ccnnc3)c2c1=O [Compound 108]	–	–	–	IC50 [1]: < 0.1 µM; IC50 [2]: 1 to 10 µM
C[C@H](Nc1ncnc2scnc12)c1cc2cccc(-c3cnc(OCc4ccccc4)nc3)c2c(=O)n1-c1ccccc1 [Compound 53]	1 to 10	1 to 10	< 0.1	–
C[C@H](Nc1ncnc2scnc12)c1cc2cccc(-c3cncc(F)c3)c2c(=O)n1-c1ccccc1 [Compound 21]	1 to 10	–	< 0.1	–
Cc1c(-c2cccc3cc([C@H](C)Nc4ncnc5scnc45)n(-c4ccccc4)c(=O)c23)cnn1C [Compound 43]	1 to 10	1 to 10	< 0.1	–
C[C@H](Nc1ncnc2scnc12)c1cc2cccc(-c3cncc(N)c3)c2c(=O)n1-c1ccccc1 [Compound 109]	1 to 10	–	–	IC50 [1]: < 0.1 µM; IC50 [2, 5]: 0.1 to 1 µM
C[C@H](Nc1ncnc2scnc12)c1cc2cccc(-c3ccnnc3)c2c(=O)n1-c1ccccc1 [Compound 92]	1 to 10	–	< 0.1	–
C[C@H](Nc1ncnc2scnc12)c1cc2cccc(-c3ccc(N(C)C)nc3)c2c(=O)n1-c1ccccc1 [Compound 47]	1 to 10	–	< 0.1	–
COc1ncc(-c2cccc3cc([C@H](C)Nc4ncnc5scnc45)n(C4CC4)c(=O)c23)cn1 [Compound 61]	1 to 10	1 to 10	< 0.1	–
Cc1nsc2cc(C(C)Nc3ncnc4scnc34)n(-c3ccccc3)c(=O)c12 (stereo not drawn) [Compound 12]	–	1 to 10	< 0.1	IC50 (PI3Kγ): 1 to 10 µM
C[C@H](Nc1ncnc2scnc12)c1cc2cccc(-c3cnn(CCN4CCOCC4)c3)c2c(=O)n1-c1ccccc1 [Compound 48]	1 to 10	–	< 0.1	–
Cc1cccc2cc([C@H](C)Nc3ncnc4scnc34)n(-c3cccc(F)c3)c(=O)c12 [Compound 100]	1 to 10	–	< 0.1	–
C[C@H](Nc1ncnc2scc(-c3ccccc3)c12)c1cc2cccc(Cl)c2c(=O)n1-c1ccccc1 [Compound 98]	–	–	–	IC50 (PI3Kγ): 1 to 10 µM
